Among the data in patent publication US20260008758A1, “LINEAR DIPEPTIDYL PEPTIDASE 1 INHIBITORS AND USES THEREOF” (Insmed Incorporated, priority 2024, published 2026) are IC50 values, retold here.

The assay concerns the target human DPP1 enzyme (Homo sapiens (Human), UniProt P53634). In words: Human DPP1 enzyme IC50 assay. It is filed as biochemical. The following applies: recombinant human DPP1, H-Gly-Arg-AMC substrate 400 μM. The procedure:
Test articles were applied to activated human DPP1 enzyme in Assay Buffer (25 mM MES pH 6.0, 50 mM NaCl, 5 mM DTT) in a total reaction volume of 125 μL. 25 μL of compound in Assay Buffer plus 5% DMSO was first added to 50 μL of activated human DPP1 enzyme at a concentration of 1 ng/μL and allowed to pre-incubate for 10 minutes at 37° C. after which 50 μL of 1000 μM H-Gly-Arg-AMC substrate (Bachem; St. Torrance, CA) was added, giving final substrate concentration of 400 μM and a final DMSO concentration of 1%. Substrate cleavage was measured for 90 minutes at 37° C., with fluorescence at Excitation/Emission 350/450 nm measured every 5 minutes. DPP1 concentration was interpolated based on its activity relative to a standard curve of activated human recombinant DPP1 enzyme. IC50 values for each compound were calculated via the XLFit (IDBS Version 5.3.1.3) Add-On to Microsoft Excel using the four parameter fit equation y={A+[(B-A)]/[1+((C/x)^D)]}, which appears as equation number 205 (4 Parameter Logistic Model or Sigmoidal Dose-Response Model) in XLFit. Default constraints were used for each Parameter.

Molecules are shown by their SMILES.

human DPP1 enzyme, sequence (P53634 25-134): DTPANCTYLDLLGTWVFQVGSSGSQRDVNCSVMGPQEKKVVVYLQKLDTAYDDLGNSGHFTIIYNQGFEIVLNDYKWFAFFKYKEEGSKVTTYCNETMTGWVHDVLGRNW
human DPP1 enzyme, sequence (P53634 231-394): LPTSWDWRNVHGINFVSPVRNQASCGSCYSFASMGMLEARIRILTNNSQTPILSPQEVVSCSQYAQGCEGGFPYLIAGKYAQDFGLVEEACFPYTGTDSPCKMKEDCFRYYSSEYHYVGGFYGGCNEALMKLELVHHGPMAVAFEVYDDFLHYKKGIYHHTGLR
human DPP1 enzyme, sequence (P53634 395-463): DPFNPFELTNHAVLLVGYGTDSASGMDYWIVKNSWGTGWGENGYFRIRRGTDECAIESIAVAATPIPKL

Consider `C[C@@H](N)[C@H](O)C(=O)N[C@H](C#N)Cc1ccc(-c2ccc3oc(=O)n(C)c3c2)cc1` [Compound 102A], for which the IC50 (commonly the midpoint of a concentration-inhibition curve) was ≥ 15 nM.
The result for `C[C@H](N)[C@H](O)C(=O)N[C@H](C#N)Cc1ccc(-c2ccc3oc(=O)n(C)c3c2)cc1` [Compound 102C] reads ≥ 15 nM; that for `CN(C)C[C@@H](O)C(=O)N[C@H](C#N)Cc1ccc(-c2ccc3oc(=O)n(C)c3c2)cc1` [Compound 104, (2R)—N-[(1S)-1-cyano-2-[4-(3-methyl-2-oxo-1,3-benzoxazol-5-yl)phenyl]ethyl]-3-(dimethylamino)-2-hydroxypropanamide], ≥ 15 nM.
Take `CO[C@H](CN(C)C)C(=O)N[C@H](C#N)Cc1ccc(-c2ccc3oc(=O)n(C)c3c2)cc1` [Compound 112, (2R)—N-[(1S)-1-cyano-2-[4-(3-methyl-2-oxo-1,3-benzoxazol-5-yl)phenyl]ethyl]-3-(dimethylamino)-2-methoxypropanamide]: the 50% inhibitory concentration (IC50) is ≥ 15 nM.
In the case of `CN(C)C[C@@H](O)CC(=O)N[C@H](C#N)Cc1ccc(-c2ccc3oc(=O)n(C)c3c2)cc1` [Compound 113, (3S)—N-[(1S)-1-cyano-2-[4-(3-methyl-2-oxo-1,3-benzoxazol-5-yl)phenyl]ethyl]-4-(dimethylamino)-3-hydroxybutanamide], the IC50 is ≥ 15 nM.
For `CCN(CC)C[C@H](O)C(=O)N[C@H](C#N)Cc1ccc(-c2ccc3oc(=O)n(C)c3c2)cc1` [Compound 115, (2S)—N-[(1S)-1-cyano-2-[4-(3-methyl-2-oxo-1,3-benzoxazol-5-yl)phenyl]ethyl]-3-(diethylamino)-2-hydroxypropanamide], the IC50 is ≥ 15 nM.
The result for `CCN(CC)C[C@@H](O)C(=O)N[C@H](C#N)Cc1ccc(-c2ccc3oc(=O)n(C)c3c2)cc1` [Compound 116, (2R)—N-[(1S)-1-cyano-2-[4-(3-methyl-2-oxo-1,3-benzoxazol-5-yl)phenyl]ethyl]-3-(diethylamino)-2-hydroxypropanamide] reads ≥ 15 nM; that for `CN(C)C[C@H](O)CC(=O)N[C@H](C#N)Cc1ccc(-c2ccc3oc(=O)n(C)c3c2)cc1` [Compound 118, (3R)—N-[(1S)-1-cyano-2-[4-(3-methyl-2-oxo-1,3-benzoxazol-5-yl)phenyl]ethyl]-4-(dimethylamino)-3-hydroxybutanamide], ≥ 15 nM; that for `Cn1c(=O)oc2ccc(-c3ccc(C[C@@H](C#N)NC(=O)[C@@H](O)CN4CCCC4)cc3)cc21` [Compound 120, (2S)—N-[(1S)-1-cyano-2-[4-(3-methyl-2-oxo-1,3-benzoxazol-5-yl)phenyl]ethyl]-2-hydroxy-3-(pyrrolidin-1-yl)propanamide], ≥ 15 nM.
Next, `Cn1c(=O)oc2ccc(-c3ccc(C[C@@H](C#N)NC(=O)[C@@H](O)CN4CCOCC4)cc3)cc21` [Compound 121, (2S)—N-[(1S)-1-cyano-2-[4-(3-methyl-2-oxo-1,3-benzoxazol-5-yl)phenyl]ethyl]-2-hydroxy-3-(morpholin-4-yl)propanamide]: ≥ 15 nM; `CCN(C)C[C@H](OC)C(=O)N[C@H](C#N)Cc1ccc(-c2ccc3oc(=O)n(C)c3c2)cc1` [Compound 130, (2S)—N-[(1S)-1-cyano-2-[4-(3-methyl-2-oxo-1,3-benzoxazol-5-yl)phenyl]ethyl]-3-[ethyl(methyl)amino]-2-methoxypropanamide]: ≥ 15 nM; `CC(CO)CC(N)C(=O)N[C@H](C#N)Cc1ccc(-c2ccc3oc(=O)n(C)c3c2)cc1` (stereo partly drawn) [Compound 168, 2-amino-N-[(1S)-1-cyano-2-[4-(3-methyl-2-oxo-1,3-benzoxazol-5-yl)phenyl]ethyl]-5-hydroxy-4-methylpentanamide]: ≥ 15 nM.
For `C[C@@H](O)[C@@](C)(N)C(=O)N[C@H](C#N)Cc1ccc(-c2ccc3oc(=O)n(C)c3c2)cc1` [Compound 171C, (2R,3R)-2-amino-N-[(1S)-1-cyano-2-[4-(3-methyl-2-oxo-1,3-benzoxazol-5-yl)phenyl]ethyl]-3-hydroxy-2-methylbutanamide], the half-inhibitory concentration (IC50) was ≥ 15 nM.
On to `CC(O)CNCC(=O)N[C@H](C#N)Cc1ccc(-c2ccc3oc(=O)n(C)c3c2)cc1` (stereo partly drawn) [Compound 174, N—((S)-1-cyano-2-(4-(3-methyl-2-oxo-2,3-dihydrobenzo[d]oxazol-5-yl)phenyl)ethyl)-2-((2-hydroxypropyl)amino)acetamide], for which the IC50 was ≥ 15 nM.
With `Cn1c(=O)oc2ccc(-c3ccc(C[C@@H](C#N)NC(=O)CC(N)c4ccccc4)cc3)cc21` (stereo partly drawn) [Compound 189, 3-amino-N-[(1S)-1-cyano-2-[4-(3-methyl-2-oxo-2,3-dihydro-1,3-benzoxazol-5-yl)phenyl]ethyl]-3-phenylpropanamide], the IC50 was ≥ 15 nM.
Next, `Cn1c(=O)oc2ccc(-c3ccc(C[C@@H](C#N)NC(=O)C(CN)Cc4cccnc4)cc3)cc21` (stereo partly drawn) [Compound 191, 3-Amino-N-[(1S)-1-cyano-2-[4-(3-methyl-2-oxo-1,3-benzoxazol-5-yl)phenyl]ethyl]-2-(pyridin-3-ylmethyl) propanamide]: ≥ 15 nM.
On to `Cc1ccccc1CC(CN)C(=O)N[C@H](C#N)Cc1ccc(-c2ccc3oc(=O)n(C)c3c2)cc1` (some centres unmarked) [Compound 192], for which the IC50 is ≥ 15 nM.
Take `Cc1ccccc1C[C@H](CN)C(=O)N[C@H](C#N)Cc1ccc(-c2ccc3oc(=O)n(C)c3c2)cc1` [Compound 193, (2R)-3-amino-N-[(1S)-1-cyano-2-[4-(3-methyl-2-oxo-1,3-benzoxazol-5-yl)phenyl]ethyl]-2-[(2-methylphenyl)methyl]propanamide]: the IC50 is ≥ 15 nM.
`Cc1ccccc1C[C@@H](CN)C(=O)N[C@H](C#N)Cc1ccc(-c2ccc3oc(=O)n(C)c3c2)cc1` [Compound 194, (2S)-3-amino-N-[(1S)-1-cyano-2-[4-(3-methyl-2-oxo-1,3-benzoxazol-5-yl)phenyl]ethyl]-2-[(2-methylphenyl)methyl]propanamide]: the concentration for half-maximal inhibition (IC50) is ≥ 15 nM.
In the case of `Cn1c(=O)oc2ccc(-c3ccc(C[C@@H](C#N)NC(=O)C(C)(CN)Cc4ccccc4F)cc3)cc21` (stereo partly drawn) [Compound 196, 3-Amino-N-[(1S)-1-cyano-2-[4-(3-methyl-2-oxo-1,3-benzoxazol-5-yl)phenyl]ethyl]-2-[(2-fluorophenyl)methyl]-2-methylpropanamide], the IC50 is ≥ 15 nM.
For `Cn1c(=O)oc2ccc(-c3ccc(C[C@@H](C#N)NC(=O)C(C)(CN)Cc4c(F)cccc4Cl)cc3)cc21` (stereo partly drawn) [Compound 197, 3-amino-2-[(2-chloro-6-fluorophenyl)methyl]-N-[(1S)-1-cyano-2-[4-(3-methyl-2-oxo-1,3-benzoxazol-5-yl)phenyl]ethyl]-2-methylpropanamide], the 50% inhibitory concentration (IC50) was ≥ 15 nM.
On to `Cc1ccccc1[C@@H](N)CC(=O)N[C@H](C#N)Cc1ccc(-c2ccc3oc(=O)n(C)c3c2)cc1` [Compound 198, (3S)-3-amino-N-[(1S)-1-cyano-2-[4-(3-methyl-2-oxo-1,3-benzoxazol-5-yl)phenyl]ethyl]-3-(2-methylphenyl)propanamide], for which the IC50 was ≥ 15 nM.
Take `Cn1c(=O)oc2ccc(-c3ccc(C[C@@H](C#N)NC(=O)C(C)(N)c4ccc(O)cc4)cc3)cc21` (stereo partly drawn) [Compound 200, 2-amino-N-[(1S)-1-cyano-2-[4-(3-methyl-2-oxo-1,3-benzoxazol-5-yl)phenyl]ethyl]-2-(4-hydroxyphenyl)propanamide]: the IC50 was ≥ 15 nM.
Consider `Cn1c(=O)oc2ccc(-c3ccc(C[C@@H](C#N)NC(=O)C(C)(N)c4cccnc4)cc3)cc21` (stereo partly drawn) [Compound 216, 2-amino-N-[(1S)-1-cyano-2-[4-(3-methyl-2-oxo-1,3-benzoxazol-5-yl)phenyl]ethyl]-2-(pyridin-3-yl)propanamide], for which the concentration for half-maximal inhibition (IC50) is ≥ 15 nM.
For `Cn1c(=O)oc2ccc(-c3ccc(C[C@@H](C#N)NC(=O)C(N)Cc4cncc(O)c4)cc3)cc21` (stereo partly drawn) [Compound 217, 2-amino-N-[(1S)-1-cyano-2-[4-(3-methyl-2-oxo-1,3-benzoxazol-5-yl)phenyl]ethyl]-3-(5-hydroxypyridin-3-yl)propanamide], the 50% inhibitory concentration (IC50) was ≥ 15 nM.
`Cn1c(=O)oc2ccc(-c3ccc(C[C@@H](C#N)NC(=O)C[C@@H](N)Cc4cccc(O)c4)cc3)cc21` [Compound 225, (3S)-3-amino-N-[(1S)-1-cyano-2-[4-(3-methyl-2-oxo-1,3-benzoxazol-5-yl)phenyl]ethyl]-4-(3-hydroxyphenyl)butanamide]: the IC50 is ≥ 15 nM.
Regarding `Cn1c(=O)oc2ccc(-c3ccc(C[C@@H](C#N)NC(=O)C[C@@H](N)C4CCCO4)cc3)cc21` (stereo partly drawn) [Compound 226, (3R)-3-amino-N—((S)-1-cyano-2-(4-(3-methyl-2-oxo-2,3-dihydrobenzo[d]oxazol-5-yl)phenyl)ethyl)-3-(tetrahydrofuran-2-yl)propanamide], the half-maximal inhibitory concentration (IC50) is ≥ 15 nM.
Turning to `Cn1c(=O)oc2ccc(-c3ccc(C[C@@H](C#N)NC(=O)C[C@H](N)c4ccccc4O)cc3)cc21` [Compound 227A, (3S)-3-amino-N-[(1S)-1-cyano-2-[4-(3-methyl-2-oxo-1,3-benzoxazol-5-yl)phenyl]ethyl]-3-(2-hydroxyphenyl)propenamide], the concentration for half-maximal inhibition (IC50) is ≥ 15 nM.
Regarding `Cn1c(=O)oc2ccc(-c3ccc(C[C@@H](C#N)NC(=O)C[C@@H](N)c4ccccc4O)cc3)cc21` [Compound 227B, (3R)-3-amino-N-[(1S)-1-cyano-2-[4-(3-methyl-2-oxo-1,3-benzoxazol-5-yl)phenyl]ethyl]-3-(2-hydroxyphenyl)propanamide], the IC50 was ≥ 15 nM.
